In turn, `Cc1oc(-c2ccccc2)nc1COc1ccc(S(=O)(=O)Nc2cccc(Cl)c2C(=O)O)cc1` [Compd 4-1, 6-Chloro-2-[4-(5-methyl-2-phenyl-oxazol-4-ylmethoxy)-benzenesulfonylamino]-benzoic acid] returned a melting point of 170 to 172 °C.
As to `Cc1oc(-c2ccccc2)nc1COc1ccc(S(=O)(=O)Nc2cc(-c3ccccc3)ccc2C(=O)O)cc1` [Compd 4-2, 3-[4-(5-Methyl-2-phenyl-oxazol-4-ylmethoxy)-benzenesulfonylamino]-biphenyl-4-carboxylic acid], the melting point fell in the range of 75 to 77 °C.
`Cc1oc(-c2ccc(C(F)(F)F)cc2)nc1COc1ccc(S(=O)(=O)Nc2cc(Cl)ccc2C(=O)O)cc1` [Compd 4-3, 4-Chloro-2-{4-[5-methyl-2-(4-trifluoromethyl-phenyl)-oxazol-4-ylmethoxy]-benzene-sulfonylamino}benzoic acid] showed a melting point of 191 to 193 °C.
Consider `Cc1oc(-c2ccccc2)nc1COc1ccc(S(=O)(=O)Nc2cccc(F)c2C(=O)O)cc1` [Compd 4-4, 6-Fluoro-2-[4-(5-methyl-2-phenyl-oxazol-4-ylmethoxy)-benzenesulfonylamino]-benzoic acid], for which the melting point lay within 203 to 205 °C.
`Cc1oc(-c2ccc(F)cc2)nc1COc1ccc(S(=O)(=O)Nc2cc(Cl)ccc2C(=O)O)cc1` [Compd 4-5, 4-Chloro-2-{4-[2-(4-fluoro-phenyl)-5-methyl-oxazol-4-ylmethoxy]-benzenesulfonylamino}-benzoic acid] displayed a melting point of 223 to 225 °C.
For the molecule `Cc1oc(-c2ccccc2)nc1COc1ccc(S(=O)(=O)Nc2cccc(C(F)(F)F)c2C(=O)O)cc1` [Compd 4-6, 2-[4-(5-Methyl-2-phenyl-oxazol-4-ylmethoxy)-benzenesulfonylamino]-6-trifluoromethyl-benzoic acid], the melting point is 197 to 198 °C.
`Cc1oc(-c2ccccc2)nc1COc1ccc(S(=O)(=O)Nc2cc(Cl)ccc2C(=O)O)cc1` [Compd 4-7, 4-Chloro-2-[4-(5-methyl-2-phenyl-oxazol-4-ylmethoxy)-benzenesulfonylamino]-benzoic acid] had a melting point of 98 to 100 °C.
Molecule `Cc1oc(-c2ccc(C(F)(F)F)cc2)nc1COc1ccc(S(=O)(=O)Nc2ccccc2C(=O)O)cc1` [Compd 4-8, 2-{4-[5-Methyl-2-(4-trifluoromethyl-phenyl)-oxazol-4-ylmethoxy]-benzenesulfonylamino}-benzoic acid] showed a melting point of 195 °C.
In turn, `Cc1oc(-c2ccccc2)nc1COc1ccc(S(=O)(=O)Nc2cc(F)ccc2C(=O)O)cc1` [Compd 4-10, 4-Fluoro-2-[4-(5-methyl-2-phenyl-oxazol-4-ylmethoxy)-benzenesulfonylamino]-benzoic acid] came in with a melting point of 212 to 214 °C.
Regarding `Cc1oc(-c2ccccc2)nc1COc1ccc(S(=O)(=O)Nc2ccccc2C(=O)O)cc1` [Compd 4-11, 2-[4-(5-Methyl-2-phenyl-oxazol-4-ylmethoxy)-benzenesulfonylamino]-benzoic acid], the melting point was 195 to 198 °C.
`Cc1ccc(C(=O)O)c(NS(=O)(=O)c2ccc(OCc3nc(-c4ccccc4)oc3C)cc2)c1` [Compd 4-12, 4-Methyl-2-[4-(5-methyl-2-phenyl-oxazol-4-ylmethoxy)-benzenesulfonylamino]-benzoic acid]: the melting point was 207 to 208 °C.
Consider `Cc1oc(-c2ccccc2)nc1COc1ccc(S(=O)(=O)Nc2ccc(F)cc2C(=O)O)cc1` [Compd 4-14, 5-Fluoro-2-[4-(5-methyl-2-phenyl-oxazol-4-ylmethoxy)-benzenesulfonylamino]-benzoic acid], for which the melting point is 213 to 215 °C.
`Cc1oc(-c2ccccc2)nc1COc1ccc(S(=O)(=O)Nc2ccc(Cl)cc2C(=O)O)cc1` [Compd 4-15, 5-Chloro-2-[4-(5-methyl-2-phenyl-oxazol-4-ylmethoxy)-benzenesulfonylamino]-benzoic acid]: the melting point lay within 207 to 208 °C.
In the case of `COc1ccc(NS(=O)(=O)c2ccc(OCc3nc(-c4ccccc4)oc3C)cc2)c(C(=O)O)c1` [Compd 4-16, 5-Methoxy-2-[4-(5-methyl-2-phenyl-oxazol-4-ylmethoxy)-benzenesulfonylamino]-benzoic acid] it was 190 to 194 °C; in that of `Cc1ccc(NS(=O)(=O)c2ccc(OCc3nc(-c4ccccc4)oc3C)cc2)c(C(=O)O)c1` [Compd 4-17, 5-Methyl-2-[4-(5-methyl-2-phenyl-oxazol-4-ylmethoxy)-benzenesulfonylamino]-benzoic acid], 185 to 187 °C; in that of `CC(=O)Nc1ccc(NS(=O)(=O)c2ccc(OCc3nc(-c4ccccc4)oc3C)cc2)c(C(=O)O)c1` [Compd 4-18, 5-Acetylamino-2-[4-(5-methyl-2-phenyl-oxazol-4-ylmethoxy)-benzenesulfonylamino]-benzoic acid], 89 to 90 °C.
Molecule `Cc1oc(-c2ccccc2)nc1CCOc1ccc(S(=O)(=O)Nc2cc(-c3ccccc3)ccc2C(=O)O)cc1` [Compd 4-19, 3-{4-[2-(5-Methyl-2-phenyl-oxazol-4-yl)-ethoxy]-benzenesulfonylamino}-biphenyl-4-carboxylic acid] showed a melting point of 177 to 179 °C.
Molecule `COc1ccc(NS(=O)(=O)c2ccc(OCCc3nc(-c4ccccc4)oc3C)cc2)c(C(=O)O)c1OC` [Compd 4-20, 2,3-Dimethoxy-6-{4-[2-(5-methyl-2-phenyl-oxazol-4-yl)-ethoxy]-benzenesulfonyl-amino}benzoic acid] showed a melting point of 59 to 60 °C.
In the case of `Cc1oc(-c2ccccc2)nc1CCOc1ccc(S(=O)(=O)Nc2ccccc2C(=O)O)cc1` [Compd 4-21, 2-{4-[2-(5-Methyl-2-phenyl-oxazol-4-yl)-ethoxy]-benzenesulfonylamino}-benzoic acid] it was 136 to 138 °C.
In turn, `COc1cc(NS(=O)(=O)c2ccc(OCc3nc(-c4ccccc4)oc3C)cc2)c(C(=O)O)cc1OC` [Compd 4-24, 4,5-Dimethoxy-2-[4-(5-methyl-2-phenyl-oxazol-4-ylmethoxy)-benzenesulfonylamino]-benzoic acid] displayed a melting point of 206 to 207 °C.
The value for `Cc1cc(C)c(NS(=O)(=O)c2ccc(OCc3nc(-c4ccccc4)oc3C)cc2)c(C(=O)O)c1` [Compd 4-25, 3,5-Dimethyl-2-[4-(5-methyl-2-phenyl-oxazol-4-ylmethoxy)-benzenesulfonylamino]-benzoic acid] was 165 to 166 °C.
In the case of `Cc1oc(-c2ccccc2)nc1COc1ccc(S(=O)(=O)Nc2cc3ccccc3cc2C(=O)O)cc1` [Compd 4-26, 3-[4-(5-Methyl-2-phenyl-oxazol-4-ylmethoxy)-benzenesulfonylamino]-naphthalene-2-carboxylic acid], the melting point fell in the range of 234 to 236 °C.
`O=C(NCc1ccc(C(F)(F)F)cc1)c1ccc(S(=O)(=O)Nc2ccccc2C(=O)O)cc1` [Compd 6-1, 2-[4-(4-Trifluoromethyl-benzylcarbamoyl)-benzenesulfonylamino]-benzoic acid] displayed a melting point of 330 to 335 °C.
Turning to `COc1cc(OC)c(C(=O)O)c(OCc2ccc(OCCc3nc(-c4ccccc4)oc3C)cc2)c1` [Compd 21-1, 2,4-Dimethoxy-6-{4-[2-(5-methyl-2-phenyl-oxazol-4-yl)-ethoxy]-benzyloxy}-benzoic acid], the melting point is 58 to 60 °C.
`COc1cc(OC)c(C(=O)O)c(OCc2ccc(OCc3nc(-c4ccccc4)oc3C)cc2)c1` [Compd 21-2, 2,4-Dimethoxy-6-[4-(5-methyl-2-phenyl-oxazol-4-ylmethoxy)-benzyloxy]-benzoic acid] registered a melting point of 182 to 183 °C.
Molecule `CCCOc1cc(C)c(C(=O)O)c(OCc2ccc(OCc3nc(-c4ccccc4)oc3C)cc2)c1` [Compd 21-3, 2-Methyl-6-[4-(5-methyl-2-phenyl-oxazol-4-ylmethoxy)-benzyloxy]-4-propoxy-benzoic acid] gave a melting point of 182 to 183 °C.
On to `Cc1oc(-c2ccccc2)nc1CCOc1ccc(COc2cc(C(F)(F)F)cc(C(F)(F)F)c2C(=O)O)cc1` [Compd 21-4, 2-{4-[2-(5-Methyl-2-phenyl-oxazol-4-yl)-ethoxy]-benzyloxy}-4,6-bis-trifluoromethyl-benzoic acid], for which the melting point was 162 to 163 °C.
`Cc1oc(-c2ccccc2)nc1COc1ccc(COc2cc(C(F)(F)F)cc(C(F)(F)F)c2C(=O)O)cc1` [Compd 21-5, 2-[4-(5-Methyl-2-phenyl-oxazol-4-ylmethoxy)-benzyloxy]-4,6-bis-trifluoromethyl-benzoic acid] came in with a melting point of 190 to 191 °C.
As for `Cc1oc(-c2ccccc2)nc1COc1ccc(COc2cccc(F)c2C(=O)O)cc1` [Compd 21-6, 2-Fluoro-6-[4-(5-methyl-2-phenyl-oxazol-4-ylmethoxy)-benzyloxy]-benzoic acid], the melting point was in the range of 167 to 168 °C.
As for `Cc1cc(OC(C)C)cc(OCc2ccc(OCCc3nc(-c4ccccc4)oc3C)cc2)c1C(=O)O` [Compd 21-7, 4-Isopropoxy-2-methyl-6-{4-[2-(5-methyl-2-phenyl-oxazol-4-yl)-ethoxy]-benzyloxy}-benzoic acid], the melting point lay in the range of 157 to 158 °C.
The molecule `Cc1oc(-c2ccccc2)nc1CCOc1ccc(COc2cccc(F)c2C(=O)O)cc1` [Compd 21-8, 2-Fluoro-6-{4-[2-(5-methyl-2-phenyl-oxazol-4-yl)-ethoxy]-benzyloxy}-benzoic acid] yielded a melting point of 142 to 143 °C.
The molecule `COc1cccc(OCc2ccc(OCc3nc(-c4ccccc4)oc3C)cc2)c1C(=O)O` [Compd 21-9, 2-Methoxy-6-[4-(5-methyl-2-phenyl-oxazol-4-ylmethoxy)-benzyloxy]-benzoic acid] returned a melting point of 180 to 181 °C.
In the case of `COc1cccc(OCc2ccc(OCCc3nc(-c4ccccc4)oc3C)cc2)c1C(=O)O` [Compd 21-10, 2-Methoxy-6-{4-[2-(5-methyl-2-phenyl-oxazolyl)-ethoxy]-benzyloxy}-benzoic acid] it was 183 to 184 °C.
Consider `Cc1oc(-c2ccccc2)nc1COc1ccc(COc2cc(Cl)ccc2C(=O)O)cc1` [Compd 21-11, 4-Chloro-2-[4-(5-methyl-2-phenyl-oxazol-4-ylmethoxy)-benzyloxy]-benzoic acid], for which the melting point was in the range of 155 to 156 °C.
For the molecule `Cc1oc(-c2ccccc2)nc1CCOc1ccc(COc2cc(Cl)ccc2C(=O)O)cc1` [Compd 21-12, 4-Chloro-2-{4-[2-(5-methyl-2-phenyl-oxazol-4-yl)-ethoxy]-benzyloxy}benzoic acid], the melting point lay within 148 to 149 °C.

What is called melting point is the temperature of the solid-liquid transition.
